Source: US9388166B2, “6-aminoindole derivatives as TRP channel antagonists” (Hoffmann-La Roche Inc., priority 2012, dated 2016)

Target: T1, hTRPA1 (Homo sapiens, UniProt O75762)
T1 construct: host or cells: CHO-K1 Tet-On, clone 20, expression induced with tetracycline/doxycycline
Test: Dose response calcium flux (FLIPR) assay, ChanTest hTRPA1-CHO stably transfected cell line, cinnamaldehyde agonist
Format: cell-based
Conditions: CHO-K1 Tet-On hTRPA1 Clone 20 cells, 30 min compound preincubation, cinnamaldehyde final 100 uM
Procedure: Dose Response Assay: ChanTest hTRPA1-CHO Stably Transfected Cell Line
To induce expression, tetracycline was added to blasticidin/zeocin-free media at a final concentration of 1 ug/ml. Experiments were run at 24 h post induction.
Measured cell density and diluted to 2.4×10^5 cells/ml in media containing 1 ug/ml Doxycycline Plate 25 ul/well into 384 well black/clear tissue culture-treated plates.
Replacement Buffer: Hank's Balanced Salt Solution, 20 mM HEPES along with 0.005% BSA and 2× Probenecid
Dye Loading Buffer: Cal-3 NW Calcium dye was prepared by dissolving the contents of one vial with 500 ml Hank's Balanced Salt Solution containing 20 mM HEPES. • Control compounds for CHOK1/TRPA1 cells:
AP-18, stock 10 mM, prepare 3.5× compound dilution in a Compound Buffer (HBSS/20mM HEPES/0.005% BSA)—final concentration 10 uM.
Preparation of Cinnamaldehyde (agonist addition): • FW=132.16 • Specific gravity=1.046 gm/cc • 1.32 gm/1.046 gm/cc=1.26 ml of stock • Add 1.74 ml DMSO=3.3 M stock • Working solution 4.5× (final 100 uM in Compound Buffer: HBSS/20 mM HEPES/0.005% BSA)
Compounds dilutions were prepared from 5 or 10 mM stock (100% DMSO):
Compounds were tested at either 20 μM three folds dilution 11 steps out or 30 μM two folds dilution 11 steps out.
3 μl of diluted compound were transferred into Weidmann 384—well plate in duplicates side-by-side.
Compound plates were resuspended with 100 ul of HBSS/20 mM HEPES/0.005% BSA buffer (Compound Buffer): • column 1A-H: buffer/DMSO (bk) • column 2A-H: AP-18(control antagonist for CHOK1 TRPA1 cells) • column 1I-P: ATP (control for CHOK1 teton cells) • column 2 I-P: 2APB (control antagonist for CHOK1/TRPM8 cells).
Growth media was removed from the cell plates (20 ul) and 20 ul of the Replacement Buffer was added followed by addition of 25 ul of diluted dye. All three steps were performed using a Plate Washer BioTek 407. The plates were then incubated for 30′ at RT.
After incubation, both the cell and compound plates were brought to the FLIPR and 20 ul of the diluted compounds/antagonist/bk were transferred to the cell plates by the FLIPR. Plates were then incubated for 30′ at room temperature. After 30′ incubation, plates were returned to the FLIPR and 20 ul of 4.5× Cinnamaldehyde was added to the cell plates. During the compound addition as well as agonist addition, fluorescence readings were taken simultaneously from all 384 wells of the cell plate every 1.5 seconds. Five readings were taken to establish a stable baseline, then 20 μl of sample was rapidly (30 ul/sec) and simultaneously added to each well of the cell plate. The fluorescence was continuously monitored before, during and after sample/agonist addition for a total elapsed time of 100 seconds (compound addition) and 120 seconds (agonist addition). Responses (increase in peak fluorescence) in each well following agonist addition was determined. The initial fluorescence reading from each well, prior to ligand stimulation, was used a zero baseline value for the data from that well.

T1 sequence (O75762 whole entry): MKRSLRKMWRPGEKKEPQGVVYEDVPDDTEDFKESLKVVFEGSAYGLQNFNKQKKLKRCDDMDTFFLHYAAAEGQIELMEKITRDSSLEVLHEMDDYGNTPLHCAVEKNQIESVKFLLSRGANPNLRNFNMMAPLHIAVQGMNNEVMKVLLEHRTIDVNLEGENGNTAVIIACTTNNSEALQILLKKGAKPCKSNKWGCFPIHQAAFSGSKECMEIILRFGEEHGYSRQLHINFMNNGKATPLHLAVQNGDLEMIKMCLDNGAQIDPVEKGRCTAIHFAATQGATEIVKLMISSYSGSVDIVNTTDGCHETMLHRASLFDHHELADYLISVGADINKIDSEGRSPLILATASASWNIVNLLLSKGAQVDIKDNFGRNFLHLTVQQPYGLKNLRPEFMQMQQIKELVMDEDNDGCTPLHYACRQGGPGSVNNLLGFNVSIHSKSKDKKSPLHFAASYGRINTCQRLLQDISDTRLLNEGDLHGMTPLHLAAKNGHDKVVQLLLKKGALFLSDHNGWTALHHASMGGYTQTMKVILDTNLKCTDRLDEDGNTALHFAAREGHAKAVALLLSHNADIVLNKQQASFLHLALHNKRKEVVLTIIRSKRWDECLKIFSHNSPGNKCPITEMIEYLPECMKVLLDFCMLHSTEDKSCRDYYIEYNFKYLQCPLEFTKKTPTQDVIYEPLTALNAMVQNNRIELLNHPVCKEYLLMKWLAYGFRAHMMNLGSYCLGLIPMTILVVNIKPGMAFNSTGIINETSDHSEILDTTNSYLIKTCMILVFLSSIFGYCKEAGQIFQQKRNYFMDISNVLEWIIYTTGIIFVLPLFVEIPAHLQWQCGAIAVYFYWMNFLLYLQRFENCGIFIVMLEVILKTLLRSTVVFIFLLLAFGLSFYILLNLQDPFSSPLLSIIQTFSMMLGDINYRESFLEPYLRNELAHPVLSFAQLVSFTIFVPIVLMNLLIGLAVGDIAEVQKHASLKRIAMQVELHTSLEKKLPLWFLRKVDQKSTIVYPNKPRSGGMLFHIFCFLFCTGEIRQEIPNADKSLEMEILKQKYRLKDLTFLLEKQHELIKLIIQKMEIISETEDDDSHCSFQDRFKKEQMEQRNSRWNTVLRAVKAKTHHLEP

SMILES	IC50
COc1nccc(Cl)c1-c1cc2ccc(NC(=O)[C@@H]3CCCCN3S(=O)(=O)c3ccc(F)cc3)cc2[nH]1 [Example 13, (S)-1-(4-Fluoro-benzenesulfonyl)-piperidine-2-carboxylic acid[2-(4-chloro-2-methoxy-pyridin-3-yl)-1H-indol-6-yl]amide]	3.5 µM
CNc1ccc2cc(-c3c(I)ccnc3OC)[nH]c2c1 [Example 5, [2-(4-Iodo-2-methoxy-pyridin-3-yl)-1H-indol-6-yl]-methyl-amine]	5.5 µM
COc1nccc(I)c1-c1cc2ccc(NC(=O)C(F)F)cc2[nH]1 [Example 3, 2,2-Difluoro-N-[2-(4-iodo-2-methoxy-pyridin-3-yl)-1H-indol-6-yl]-acetamide]	4.2 µM
COc1nccc(Cl)c1-c1cc2ccc(NC(=O)c3cccc(Cl)c3)cc2[nH]1 [Example 12, 3-Chloro-N-[2-(4-chloro-2-methoxy-pyridin-3-yl)-1H-indol-6-yl]-benzamide]	5.6 µM
COc1nccc(I)c1-c1cc2ccc(N(C)C(C)=O)cc2[nH]1 [Example 7, N-[2-(4-Iodo-2-methoxy-pyridin-3-yl)-1H-indol-6-yl]-N-methyl-acetamide]	3.6 µM
COc1nccc(I)c1-c1cc2ccc(NC(=O)OC(C)(C)C)cc2[nH]1 [Example 1, [2-(4-Iodo-2-methoxy-pyridin-3-yl)-1H-indol-6-yl]-carbamic acid tert-butyl ester]	4 µM
COc1cccc(Cl)c1-c1cc2ccc(N)cc2[nH]1 [Example 9, 2-(2-Chloro-6-methoxy-phenyl)-1H-indol-6-ylamine]	4.3 µM

The next compounds have a lower IC50 than those just listed; values first:

IC50	SMILES
3.3 µM	COc1nccc(I)c1-c1cc2ccc(N(C)C(=O)C(F)F)cc2[nH]1 [Example 6, 2,2-Difluoro-N-[2-(4-iodo-2-methoxy-pyridin-3-yl)-1H-indol-6-yl]-N-methyl-acetamide]
2.9 µM	COc1nccc(I)c1-c1cc2ccc(NC(=O)c3cccc(Cl)c3)cc2[nH]1 [Example 11, 3-Chloro-N-[2-(4-iodo-2-methoxy-pyridin-3-yl)-1H-indol-6-yl]-benzamide]
0.75 µM	COc1cccc(Cl)c1-c1cc2ccc(NC(=O)C(F)(F)F)cc2[nH]1 [Example 10, N-[2-(2-Chloro-6-methoxy-phenyl)-1H-indol-6-yl]-2,2,2-trifluoro-acetamide]
0.74 µM	COc1cc2cc(-c3c(I)ccnc3OC)[nH]c2cc1N [Example 8, 2-(4-Iodo-2-methoxy-pyridin-3-yl)-5-methoxy-1H-indol-6-ylamine]
0.71 µM	COc1nccc(I)c1-c1cc2ccc(NC(=O)C(F)(F)F)cc2[nH]1 [Example 2, 2,2,2-Trifluoro-N-[2-(4-iodo-2-methoxy-pyridin-3-yl)-1H-indol-6-yl]-acetamide]
0.46 µM	COc1nccc(Cl)c1-c1cc2ccc(NC(=O)C(F)(F)F)cc2[nH]1 [Example 4, N-[2-(4-Chloro-2-methoxy-pyridin-3-yl)-1H-indol-6-yl]-2,2,2-trifluoro-acetamide]
